Experimental data published in PubChem BioAssay AID624129 (Sanford-Burnham Center for Chemical Genomics, 2012).
The source made the active and inactive calls. How the calls were made is not given here.

Experiments:
Experiment in all cases: potency against CXCR6 with APJ panel – cell-based, beta-arrestin, DiscoveRx, uHTS hits, dose response (AID 624129)
[1] = molecular target: C-X-C chemokine receptor type 6 (Homo sapiens) (UniProt O00574); conditions: CXCR6 beta-arrestin (DiscoveRx) antagonist cell assay
Chain of C-X-C chemokine receptor type 6 (Homo sapiens) (O00574 whole entry, looked up): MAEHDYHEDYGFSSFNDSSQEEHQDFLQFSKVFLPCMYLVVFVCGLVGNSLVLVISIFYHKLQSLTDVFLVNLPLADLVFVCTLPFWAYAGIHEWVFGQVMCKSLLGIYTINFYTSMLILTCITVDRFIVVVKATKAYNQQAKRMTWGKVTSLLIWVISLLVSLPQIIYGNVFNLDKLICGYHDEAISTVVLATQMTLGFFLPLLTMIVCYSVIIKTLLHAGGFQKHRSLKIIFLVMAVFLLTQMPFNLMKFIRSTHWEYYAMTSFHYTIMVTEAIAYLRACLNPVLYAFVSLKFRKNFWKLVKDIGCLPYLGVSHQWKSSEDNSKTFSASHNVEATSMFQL

[2] = molecular target: C-C chemokine receptor type 6 (Homo sapiens) (UniProt P51684); conditions: CXCR6 beta-arrestin (DiscoveRx) antagonist cell assay
[3] = molecular target: Apelin receptor (Homo sapiens) (UniProt P35414); conditions: CXCR6 beta-arrestin (DiscoveRx) antagonist cell assay, APJ
[4] = molecular target: Beta-galactosidase (Escherichia coli) (UniProt Q8VNN2); conditions: CXCR6 beta-arrestin (DiscoveRx) antagonist cell assay, b-galactosidase
Chain of Beta-galactosidase (Escherichia coli) (Q8VNN2 whole entry, looked up): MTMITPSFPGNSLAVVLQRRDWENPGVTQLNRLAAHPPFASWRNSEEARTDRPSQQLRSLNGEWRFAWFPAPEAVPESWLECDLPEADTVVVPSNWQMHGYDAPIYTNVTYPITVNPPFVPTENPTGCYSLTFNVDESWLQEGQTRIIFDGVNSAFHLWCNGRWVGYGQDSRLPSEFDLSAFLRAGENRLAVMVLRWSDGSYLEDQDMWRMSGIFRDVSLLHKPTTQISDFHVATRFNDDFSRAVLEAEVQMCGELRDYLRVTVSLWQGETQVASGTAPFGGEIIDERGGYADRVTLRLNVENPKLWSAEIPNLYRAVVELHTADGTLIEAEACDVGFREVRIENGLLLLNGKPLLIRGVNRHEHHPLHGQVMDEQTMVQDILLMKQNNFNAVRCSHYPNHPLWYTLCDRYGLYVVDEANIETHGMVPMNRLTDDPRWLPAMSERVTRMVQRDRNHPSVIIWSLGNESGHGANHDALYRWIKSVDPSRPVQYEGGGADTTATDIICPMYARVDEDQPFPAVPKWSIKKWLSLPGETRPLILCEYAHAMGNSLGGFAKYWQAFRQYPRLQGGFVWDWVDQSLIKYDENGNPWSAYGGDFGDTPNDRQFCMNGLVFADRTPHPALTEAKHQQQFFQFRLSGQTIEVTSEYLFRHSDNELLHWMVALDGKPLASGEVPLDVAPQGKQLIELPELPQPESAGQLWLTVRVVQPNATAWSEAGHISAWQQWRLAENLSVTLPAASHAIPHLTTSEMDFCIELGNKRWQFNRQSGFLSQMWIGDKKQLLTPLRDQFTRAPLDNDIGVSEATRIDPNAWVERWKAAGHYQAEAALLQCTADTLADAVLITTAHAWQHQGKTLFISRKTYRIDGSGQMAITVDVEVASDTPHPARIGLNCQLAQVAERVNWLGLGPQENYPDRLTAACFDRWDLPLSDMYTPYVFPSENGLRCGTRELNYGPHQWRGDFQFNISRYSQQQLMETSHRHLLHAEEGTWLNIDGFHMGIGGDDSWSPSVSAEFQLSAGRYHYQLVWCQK

[5] = CXCR6, dose range 1, mean IC50 across replicates
[6] = CCR6, dose range 1, mean IC50 across replicates
[7] = dose range 1, mean IC50 across replicates
[8] = CXCR6, run 1, dose range 2, at 80 µM (top of the series)

| IC50 ([1]; CXCR6, dose range 1) | IC50 [1, 5] | inhibition ([1]; CXCR6, run 1, dose range 2, at 20 µM (top of the series)) | IC50 ([1]; CXCR6, run 2, dose range 1) | IC50 [2, 6] | IC50 ([2]; CCR6, run 2, dose range 1) | IC50 ([3]; dose range 1) | IC50 [3, 7] | IC50 ([3]; run 2, dose range 1) | IC50 ([3]; run 3, dose range 1) | IC50 ([4]; dose range 1) | IC50 [4, 7] | IC50 ([1]; CXCR6, run 1, dose range 2) | IC50 ([1]; CXCR6, run 2, dose range 2) | IC50 ([2]; CCR6, dose range 1) | inhibition [1, 8] | inhibition ([1]; CXCR6, run 1, dose range 2, at 40 µM (top of the series)) | Compound |
| --- | --- | --- | --- | --- | --- | --- | --- | --- | --- | --- | --- | --- | --- | --- | --- | --- | --- |
| inactive | 11.8 µM | 77.6% | > 80 µM | 8.34 µM | 8.34 µM | 9.88 µM | 10.9 µM | > 80 µM | 11.9 µM | > 80 µM (inactive) | > 80 µM |  |  |  |  |  | Cc1ccc(S(=O)(=O)c2ccc([N+](=O)[O-])o2)cc1 |
| 7.12 µM | 5.86 µM |  | 8.08 µM | 5.27 µM | 5.89 µM | 4.5 µM | 5.48 µM | 6.81 µM | 5.13 µM | > 80 µM (inactive) | > 80 µM | 3.95 µM | 4.32 µM | 4.64 µM |  |  | CCOC(=O)CSc1cccc2cccnc12 |
| 8.69 µM | 6.31 µM |  | 3.94 µM | 3.07 µM | 3.87 µM | 1.65 µM | 3.05 µM | 5.03 µM | 2.46 µM | > 80 µM (inactive) | > 80 µM |  |  | 2.26 µM | 121% |  | O=C1C=CC2(O[C@H](c3ccccc3)[C@@H](c3ccccc3)O2)[C@H](Sc2ccccc2O)C1 |
| inactive | 45.6 µM |  | 25.5 µM | 29.1 µM | 32.3 µM | 51.6 µM | 39.5 µM | 39.9 µM | 27 µM | 48.2 µM | 48.2 µM |  |  | 26 µM | 90.5% |  | C=C(CN(C)C)C(=O)c1ccc(C)cc1C |
| > 80 µM (inactive) | > 80 µM |  | > 80 µM | > 80 µM | > 80 µM |  | > 80 µM | > 80 µM | > 80 µM | > 80 µM (inactive) | > 80 µM |  |  |  | 2.4% |  | FC(F)(F)c1cnc(NNC(=S)Nc2ccccc2Cl)c(Cl)c1 |
| inactive | 20.7 µM |  | > 80 µM | 16.3 µM | 18.3 µM | 20.7 µM | 24.3 µM | 27.9 µM | > 80 µM | > 80 µM (inactive) | > 80 µM |  |  | 14.2 µM | 38.7% |  | CCOc1ccc(NCC(=O)c2ccc(C)cc2)cc1 |
| inactive | 14.5 µM |  | 14.5 µM | 9.73 µM | 11.8 µM | 6.46 µM | 9.91 µM | 10.7 µM | 12.5 µM | > 80 µM (inactive) | > 80 µM |  |  | 7.66 µM | 116% |  | O=S(=O)(Nc1cccc2cccnc12)c1ccccc1 |
| inactive | 27.1 µM |  | 61.1 µM | 12.7 µM | 13.9 µM | 14.4 µM | 14.2 µM | > 80 µM | 13.9 µM | > 80 µM (inactive) | > 80 µM | 10.4 µM | 11.9 µM | 11.4 µM |  |  | CCOc1ccc(N(CC(=O)N/N=C/c2ccccn2)S(=O)(=O)c2ccc(Cl)cc2)cc1 |
| 9.59 µM | 10.7 µM |  | 11.5 µM | 7.46 µM | 6.69 µM | 13.4 µM | 13.4 µM | 13.4 µM | > 80 µM | > 80 µM (inactive) | > 80 µM | 11.2 µM | 10.7 µM | 8.24 µM |  |  | CCOc1ccccc1NC(=O)c1nc(S(=O)(=O)Cc2ccccc2)ncc1Cl |
| > 80 µM (inactive) | > 80 µM |  | > 80 µM | > 80 µM | > 80 µM |  | > 80 µM | > 80 µM | > 80 µM | > 80 µM (inactive) | > 80 µM |  |  |  | 11.1% |  | COC(=O)[C@@H]1[C@@H](C#N)C2(c3ccccc3-c3ccccc32)N(c2ccc(Cl)cc2)N1C#N |
| 8.37 µM | 5.48 µM |  | 4.54 µM | 4.33 µM | 4.05 µM | 6.61 µM | 9.3 µM | 9.95 µM | 11.3 µM | 7.82 µM | 7.82 µM | 3.14 µM | 5.88 µM | 4.6 µM |  |  | COc1ccc(CN2C(=O)C(Cc3ccccc3)Nc3ncnc(N4CCN(c5ccccc5)CC4)c32)cc1 (configuration not stated) |
| 1.67 µM | 1.58 µM |  | 1.48 µM | 1.31 µM | 1.89 µM | 2.41 µM | 4.68 µM | 6.23 µM | 5.39 µM | > 80 µM (inactive) | > 80 µM |  |  | 0.724 µM |  | 90.8% | CN(O)C(=S)c1ccccc1 |
| inactive | 12 µM |  | 27.7 µM | 7.42 µM | 7.37 µM | inactive | 64.5 µM | 57.4 µM | > 80 µM | > 80 µM (inactive) | > 80 µM | 5.63 µM | 8.28 µM | 7.47 µM |  |  | Fc1ccc(Sc2nc(-c3ccccc3)nnc2C(F)(F)F)cc1 |
| 9.05 µM | 8.66 µM |  | 14.5 µM | 3.67 µM | 4.63 µM | 5.48 µM | 7.37 µM | 9.25 µM | > 80 µM | > 80 µM (inactive) | > 80 µM | 4.31 µM | 6.79 µM | 2.7 µM |  |  | CCCOc1cccc(-c2cc(C(=O)N/N=C/c3ccccn3)c3ccccc3n2)c1 |
| 7.42 µM | 6.24 µM |  | 5.05 µM | 5.43 µM | 6.07 µM | 8.97 µM | 11.3 µM | 13.9 µM | 11 µM | > 80 µM (inactive) | > 80 µM |  |  | 4.79 µM | 91.3% |  | CCN1/C(=C\C=C2\C(=O)N(c3ccccc3)C(=S)N2C)Sc2ccccc21 |
| > 80 µM (inactive) | > 80 µM |  | > 80 µM | > 80 µM | > 80 µM |  | > 80 µM | > 80 µM | > 80 µM | > 80 µM (inactive) | > 80 µM |  |  |  | 19.4% |  | Cc1ccc(C(=O)/C=C/C(=O)c2ccc(C)cc2)cc1 |
| 4.57 µM | 5.64 µM |  | 6.71 µM | 4.66 µM | 4.58 µM | 9.49 µM | 7.79 µM | 6.65 µM | 7.23 µM | 27.1 µM | 27.1 µM | 5.85 µM | 5.42 µM | 4.73 µM |  |  | CCC(=O)OCCNc1cc(Sc2nc3ccccc3[nH]2)c2nonc2c1[N+](=O)[O-] |
| > 80 µM (inactive) | > 80 µM |  | > 80 µM | > 80 µM | > 80 µM |  | > 80 µM | > 80 µM | > 80 µM | > 80 µM (inactive) | > 80 µM |  |  |  | -28.7% |  | Cc1nc2c(-c3ccc(Cl)cc3)c(C)[nH]n2c(=O)c1Cc1ccccc1 |
| 3.11 µM | 3.27 µM |  | 2.99 µM | 2.87 µM | 2.98 µM | 4.46 µM | 4.05 µM | 3.91 µM | 3.78 µM | > 80 µM (inactive) | > 80 µM | 3.64 µM | 3.35 µM | 2.76 µM |  |  | CCN(CC)CC(C)(C)C(=O)/C=C/c1ccc(/C=C/C(=O)C(C)(C)CN(CC)CC)cc1 |
| 1.08 µM | 1.44 µM |  | 1.79 µM | 1.55 µM | 1.92 µM | 1.05 µM | 2.38 µM | 4.56 µM | 1.52 µM | > 80 µM (inactive) | > 80 µM |  |  | 1.18 µM | 42.3% |  | Cc1ccc(C(=O)Sc2cccccc2=O)cc1 |
| 10.4 µM | 8.97 µM |  | 9.6 µM | 8.52 µM | 8.91 µM | 8.43 µM | 10.5 µM | 12.4 µM | 10.6 µM | > 80 µM (inactive) | > 80 µM | 6.4 µM | 9.45 µM | 8.13 µM |  |  | N=C1S/C(=C\c2ccco2)C(=O)N1c1nccs1 |
| 6.4 µM | 5.43 µM |  | 6.67 µM | 5.8 µM | 5.66 µM | 6.69 µM | 15.4 µM | 11.2 µM | 28.2 µM | > 80 µM (inactive) | > 80 µM | 3.78 µM | 4.85 µM | 5.94 µM |  |  | Oc1cccc2ccc(/C=C/c3c(F)cccc3Cl)nc12 |
